Measurements from article PMC9403717, “Ruthenium complexes show potent inhibition of AKR1C1, AKR1C2, and AKR1C3 enzymes and anti-proliferative action against chemoresistant ovarian cancer cell line” (Frontiers in Pharmacology, 2022).
Read-outs that look alike come from different tables or passages of the source.

Legend:
AKR1C2 = target: T1, AKR1C2 (Homo sapiens, UniProt P52895); assay: Inhibition of recombinant AKR1C2, oxidation of 1-acenaphthenol, progress-curve analysis; format: biochemical; details: for k+3: irreversible binding of second inhibitor molecule to E-NADH-I; for fold less efficient inhibition of AKR1C2 compared to AKR1C1: from K3 values; for k+2: irreversible binding of second inhibitor molecule to E-NAD-I
T1 construct: made in house
T1 sequence (P52895 1-323): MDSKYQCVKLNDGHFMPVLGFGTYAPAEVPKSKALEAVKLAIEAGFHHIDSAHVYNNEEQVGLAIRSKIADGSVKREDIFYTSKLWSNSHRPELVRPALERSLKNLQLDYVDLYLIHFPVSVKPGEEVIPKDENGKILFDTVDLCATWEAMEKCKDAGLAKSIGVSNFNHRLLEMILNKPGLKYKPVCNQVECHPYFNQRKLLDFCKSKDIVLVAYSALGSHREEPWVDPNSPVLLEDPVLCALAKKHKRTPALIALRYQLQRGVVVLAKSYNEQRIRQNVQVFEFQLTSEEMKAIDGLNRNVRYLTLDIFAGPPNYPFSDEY
Protocol: (§1) To investigate the effect of ten selected ruthenium compounds, we measured their effect on the time course of oxidation of the artificial substrate 1-acenaphtenol by recombinant enzymes AKR1C1–3. The recombinant enzymes AKR1C1–AKR1C3 were prepared as described previously ([Brozic et al., 2006]). Since the artificial substrate is racemic, the oxidation follows a double exponential pattern as described previously ([Traven et al., 2015]). The in vitro catalytic activity of AKR1C1–3 enzymes was determined spectrophotometrically by monitoring the increase in NADH absorbance at 340 nm (ε(λ340) = 6220 M^−1cm^−1) in the presence of the substrate 1-acenaphthenol. Enzymatic reactions (300 µL) were performed in 100 mm potassium phosphate buffer (pH 9.0), 0.005% (v/v) TritonX-114, 5% (v/v) DMSO, containing 2.3 mm NAD^+ and 1-acenaphthenol at final concentrations of 90, 180, and 250 µM for AKR1C1, AKR1C2, and AKR1C3, respectively. A total of 5 µL of a tested compound in DMSO was added to the reaction mixture. The final concentrations of the tested compounds ranged from 1 to 200 μM, depending on the extent of inhibition (Supplementary Data). The reaction was started by adding 15 µL of AKR1C1, AKR1C2, or AKR1C3 dissolved in 1x PBS (pH 7.3) at final concentrations of 0.11, 0.16, and 1.5 µM, respectively. AKR1C1–3 activity was measured at 37°C for 3 h without shaking using a PowerWave XS microplate reader (Biotek; Winooski, VT, United States). Measurements at seven different concentrations were performed in duplicates or triplicates (Supplementary Figures S2). To mechanistically explain all the obtained progress curves for each ruthenium complex on each enzyme by a common reaction scheme, we extended the originally proposed scheme so that the interaction of the ruthenium complex with apo- and holoenzyme was allowed to be rapid and followed by a slow irreversible association of a second ruthenium complex molecule. However, the affinity of the Ru complexes for the apoenzymes was much lower so this part was excluded from the proposed kinetic model for clarity (Figure 4).
(§2) FIGURE 4 Reaction scheme for the oxidation of 1-acenaphtenol by AKR1C1-3 and its inhibition by ruthenium compounds. E represents apoenzyme, E-NAD and E-NADH represent holoenzyme with bound NAD^+ and NADH, respectively. A and B are enantiomers of substrate 1-acenaphtenol. Symbols which include I (ruthenium compound) represent holoenzyme in complex with one or two inhibitor molecules. KNAD, KNADH, and K2-3 are equilibrium constants and k+2–3 are second-order association rate constants for the binding of the second inhibitor molecule to the enzyme. The progress curves for each enzyme in the presence of ruthenium complexes were analyzed by the WEB server ENZO (https://enzo.cmm.ki.si/) designed exactly for such purposes ([Bevc et al., 2011]).

AKR1C3 = target: T2, AKR1C3 (Homo sapiens, UniProt P42330); assay: Inhibition of recombinant AKR1C3, oxidation of 1-acenaphthenol, progress-curve analysis; format: biochemical; details: for k+3 / Ki / k+2 / inhibitory effect (in words) / irreversible inhibition (in words): AKR1C3; for k+3: irreversible binding of second inhibitor molecule to E-NADH-I; for fold less efficient inhibition of AKR1C3 compared to AKR1C1: from K3 values; for k+2: irreversible binding of second inhibitor molecule to E-NAD-I
T2 construct: made in house
T2 sequence (P42330 1-323): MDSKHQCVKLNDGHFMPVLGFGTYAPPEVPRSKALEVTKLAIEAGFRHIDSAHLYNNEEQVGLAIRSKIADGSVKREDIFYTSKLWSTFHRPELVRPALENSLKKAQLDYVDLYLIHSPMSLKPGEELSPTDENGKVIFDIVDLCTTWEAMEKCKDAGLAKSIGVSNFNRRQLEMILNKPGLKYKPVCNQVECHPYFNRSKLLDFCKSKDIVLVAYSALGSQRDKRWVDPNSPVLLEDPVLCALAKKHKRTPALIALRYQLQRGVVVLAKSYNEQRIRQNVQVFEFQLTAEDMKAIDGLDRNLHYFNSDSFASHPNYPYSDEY
Protocol: as §1, §2

[1] = AKR1C2, reversible binding to holoenzyme E-NAD, read-out: K2
[2] = AKR1C2, reversible binding to holoenzyme E-NADH, read-out: K3
[3] = reversible binding to holoenzyme E-NAD, read-out: K2
[4] = reversible binding to holoenzyme E-NADH, read-out: K3

## Cc1ccc(C(C)C)cc1.O=C(C=C([O][Ru][Cl])c1ccc(I)cc1)C(F)(F)F [Compound 1]
AKR1C2; AKR1C2
  k+3: 7.7 M⁻¹ s⁻¹
AKR1C2; [1]
  Ki: 305 µM
AKR1C2; [2]
  Ki: 0.0527 µM
AKR1C2
  fold less efficient inhibition of AKR1C2 compared to AKR1C1: 2.5 fold
AKR1C3
  k+3: 0.9 M⁻¹ s⁻¹
  fold less efficient inhibition of AKR1C3 compared to AKR1C1: 7.6 fold
AKR1C3; [3]
  Ki: 105 µM
AKR1C3; [4]
  Ki: 0.163 µM

## C1N2CN3CN1CP(C2)C3.Cc1ccc(C(C)C)cc1.F[P-](F)(F)(F)(F)F.O=C(C=C([O][Ru+])c1ccc(I)cc1)C(F)(F)F [Compound 2]
AKR1C2; AKR1C2
  k+2: 12.6 M⁻¹ s⁻¹
AKR1C2; [1]
  Ki: 80 µM
AKR1C3
  k+2: 5.3 M⁻¹ s⁻¹
AKR1C3; [3]
  Ki: 116 µM

## CN(C)c1ccc(C(=CC(=O)C(F)(F)F)[O][Ru][Cl])cc1.Cc1ccc(C(C)C)cc1 [Compound 3, (η^6-p-cymene)chlorido(4,4,4-trifluoro-1-(4-(dimethylamino)phenyl)-1,3-butandionato)ruthenium(II)]
AKR1C2; AKR1C2
  k+2: 7.4 M⁻¹ s⁻¹
  k+3: 55.4 M⁻¹ s⁻¹
AKR1C2; [1]
  Ki: 157 µM
AKR1C2; [2]
  Ki: 1.12 µM
AKR1C2
  fold less efficient inhibition of AKR1C2 compared to AKR1C1: 26 fold
AKR1C3
  k+2: 10.2 M⁻¹ s⁻¹
  k+3: 1.2 M⁻¹ s⁻¹
  fold less efficient inhibition of AKR1C3 compared to AKR1C1: 7.1 fold
AKR1C3; [3]
  Ki: 179 µM
AKR1C3; [4]
  Ki: 0.306 µM

## Cc1ccc(C(C)C)cc1.O=C(C=C([O][Ru][Cl])c1ccc2c(c1)OCO2)C(F)(F)F [Compound 5]
AKR1C2; AKR1C2
  k+3: 7.3 M⁻¹ s⁻¹
AKR1C2; [2]
  Ki: 0.0662 µM
AKR1C2
  fold less efficient inhibition of AKR1C2 compared to AKR1C1: 2.8 fold
AKR1C3
  k+3: 0.5 M⁻¹ s⁻¹
  fold less efficient inhibition of AKR1C3 compared to AKR1C1: 6.3 fold
AKR1C3; [4]
  Ki: 0.15 µM

## C1N2CN3CN1CP(C2)C3.Cc1ccc(C(C)C)cc1.F[P-](F)(F)(F)(F)F.O=C(C=C([O][Ru+])c1ccc2c(c1)OCO2)C(F)(F)F [Compound 6]
AKR1C2; AKR1C2
  k+2: 172 M⁻¹ s⁻¹
AKR1C2; [1]
  Ki: 8.3 µM
AKR1C3
  k+2: 90 M⁻¹ s⁻¹
AKR1C3; [3]
  Ki: 92.7 µM

## Cc1ccc(C(C)C)cc1.[Cl-].[O-]c1c(I)cc(Cl)c2cccnc12.[Ru+2] [Compound 7]
AKR1C2; AKR1C2
  k+3: 11.1 M⁻¹ s⁻¹
AKR1C2; [2]
  Ki: 0.0654 µM
AKR1C3
  inhibitory effect (in words): Almost no inhibition

## C1N2CN3CN1CP(C2)C3.Cc1ccc(C(C)C)cc1.F[P-](F)(F)(F)(F)F.[O-]c1c(I)cc(Cl)c2cccnc12.[Ru+2] [Compound 8]
AKR1C2; AKR1C2
  k+2: 929 M⁻¹ s⁻¹
AKR1C2; [1]
  Ki: 1.6 µM

## Cc1ccc(C(C)C)cc1.O=[N+]([O-])c1ccc([O][Ru][Cl])c2ncccc12 [Compound 9, (η ^6-p-Cymene) (nitroxolinato)chloridoruthenium (II)]
AKR1C2; AKR1C2
  inhibitory effect (in words): very weak inhibitory effect
  irreversible inhibition (in words): virtually no irreversible inhibition
AKR1C2; [1]
  Ki: 191 µM
AKR1C3
  inhibitory effect (in words): very weak inhibitory effect
  irreversible inhibition (in words): virtually no irreversible inhibition
AKR1C3; [3]
  Ki: 439 µM

## C1N2CN3CN1CP(C2)C3.Cc1ccc(C(C)C)cc1.F[P-](F)(F)(F)(F)F.O=[N+]([O-])c1ccc([O][Ru+])c2ncccc12 [Compound 10, (η ^6-p-cymene)(nitroxolinato)(pta)ruthenium(II) hexafluorophosphate]
AKR1C2; AKR1C2
  k+2: 5.1 M⁻¹ s⁻¹
AKR1C2; [1]
  Ki: 42.5 µM
AKR1C3
  inhibitory effect (in words): Almost no inhibition
  irreversible inhibition (in words): no irreversible inhibition
AKR1C3; [3]
  Ki: 561 µM
